In patent US8946166B2, “Peptide-based compounds and compositions which inhibit muscle contraction” (Lipotec, S.A., priority 2009, dated 2015):

The substances below were run on AChR clusters (assay: AChR clustering inhibition trial (agrin-induced AChR clusters in myotubes, α-bungarotoxin-tetramethylrhodamine staining, confocal quantification)). Settings: peptide 10 μM; mouse myotubes; normalized to basal values of the medium.
Assay type: cell-based

Substance	Percentage of AChR cluster inhibition [%]
Ac-L-Asp-L-Asp-L-Tyr-L-Phe-L-Arg-L-Leu-NH2	33.8
Ac-L-Asp-L-Asp-L-Tyr-L-Tyr-L-Arg-L-Met-NH2	31.3
Ac-L-Asp-L-Asp-L-Tyr-L-Tyr-L-Lys-L-Met-NH2	21.5
Ac-L-Glu-L-Asp-L-Arg-L-Phe-L-Arg-L-Leu-NH2	20.8
Ac-L-Glu-L-Asp-L-Arg-L-Phe-L-Lys-L-Leu-NH2	23.7
Ac-L-Glu-L-Asp-L-Tyr-L-Phe-L-Arg-L-Leu-NH2	30.8
Ac-L-Glu-L-Asp-L-Tyr-L-Tyr-L-Arg-L-Leu-NH2	57.1
Ac-L-Pro-L-Asp-L-Arg-L-Phe-L-Lys-L-Leu-NH2	46.1
Ac-L-Pro-L-Asp-L-Tyr-L-Phe-L-Lys-L-Leu-NH2	27.8
Ac-L-Pro-L-Asp-L-Tyr-L-Tyr-L-Arg-L-Leu-NH2	51.9
Ac-L-Pro-L-Asp-L-Tyr-L-Tyr-L-Arg-L-Met-NH2	61.1
Ac-L-Pro-L-Asp-L-Tyr-L-Tyr-L-Lys-L-Met-NH2	40.7
H-L-Glu-L-Asp-L-Arg-L-Phe-L-Arg-L-Met-NH2	25.6
Palm-L-Glu-L-Asp-L-Tyr-L-Tyr-L-Arg-L-Leu-NH2	34.8
Palm-L-Pro-L-Asp-L-Tyr-L-Tyr-L-Lys-L-Leu-NH2	33.7

Same assay, conditions: peptide 100 μM; mouse myotubes; normalized to basal values of the medium

Substance	Percentage of AChR cluster inhibition [%]
Ac-L-Glu-L-Asp-L-Arg-L-Phe-L-Arg-L-Met-NH2	55.1
Ac-L-Glu-L-Asp-L-Arg-L-Phe-L-Arg-L-Met-OH	39.1
Ac-L-Glu-L-Asp-L-Arg-L-Tyr-L-Arg-L-Leu-NH2	24.5
Ac-L-Glu-L-Asp-L-Tyr-L-Phe-L-Arg-L-Leu-OH	33.8
Ac-L-Pro-L-Asp-L-Arg-L-Tyr-L-Arg-L-Leu-NH2	40.2
Ac-L-Pro-L-Asp-L-Arg-L-Tyr-L-Lys-L-Leu-NH2	43.6
Ac-L-Pro-L-Asp-L-Tyr-L-Phe-L-Arg-L-Leu-NH—(CH2)15—CH3	27.8
Ac-L-Pro-L-Asp-L-Tyr-L-Tyr-L-Lys-L-Leu-NH2	36.7
Palm-L-Glu-L-Asp-L-Tyr-L-Tyr-L-Arg-L-Met-NH2	68.5
